Data published in ChEMBL document CHEMBL3046360, “Design, synthesis and preliminary antiviral screening of new N-phenylpyrazole and dihydroisoxazole derivatives” (Med Chem Res, 2010).
Calls of active or inactive are those of the source. No cut-off for these calls is given here.

Columns and labels:
[1] = system: Human immunodeficiency virus 1; experiment: Antiviral activity against Human immunodeficiency virus 1 IIIB infected MT4 cells assessed as inhibition of virus-induced cytopathic effect up to 20 ug/ml after 5 days by MTT assay; format: functional, organism-based
Human alphaherpesvirus 1 [2] = experiment: Antiviral activity against Human herpesvirus 1 infected Vero cells assessed as reduction in viral plaque at 10 ug/ml after overnight incubation by crystal violet staining; format: functional; design: scale not given: the % may be the effect or the level left
[3] = Cytotoxicity against Chlorocebus aethiops (African green monkey) Vero cells after 3 days by microscopic analysis; format: cell-based; conditions: chlorocebus sabaeus
[4] = system: Human immunodeficiency virus 2; experiment: Antiviral activity against Human immunodeficiency virus type 2 (ISOLATE ROD) infected MT4 cells assessed as inhibition of virus-induced cytopathic effect up to 20 ug/ml after 5 days by MTT assay; format: functional, organism-based
Hepatovirus A [5] = experiment: Antiviral activity against Hepatitis A virus infected Vero cells assessed as reduction in viral plaque at 10 ug/ml after overnight incubation by crystal violet staining; format: functional; design: scale not given: the % may be the effect or the level left
Human alphaherpesvirus 1 [6] = experiment: Antiviral activity against Human herpesvirus 1 infected Vero cells assessed as reduction in viral plaque at 20 ug/ml after overnight incubation by crystal violet staining; format: functional; design: scale not given: the % may be the effect or the level left
Hepatovirus A [7] = experiment: Antiviral activity against Hepatitis A virus infected Vero cells assessed as reduction in viral plaque at 20 ug/ml after overnight incubation by crystal violet staining; format: functional; design: scale not given: the % may be the effect or the level left
[8] = system: Vesicular stomatitis virus; experiment: Antiviral activity against Vesicular stomatitis virus infected HEL cells assessed as inhibition of virus-induced cytopathic effect after 3 days by MTT assay; format: functional, organism-based; conditions: 72 h
Reovirus sp. = experiment: Antiviral activity against Mammalian orthoreovirus 1 virus infected Vero cells assessed as inhibition of virus-induced cytopathic effect after 3 days by MTT assay; format: functional, organism-based; conditions: 72 h
Coxsackievirus B4 [9] = experiment: Antiviral activity against Human coxsackievirus B4 infected Vero cells assessed as inhibition of virus-induced cytopathic effect after 3 days by MTT assay; format: functional, organism-based; conditions: Enterovirus B, 72 h
[10] = Cytotoxicity against Homo sapiens (human) HEL cells after 3 days by microscopic analysis; format: cell-based
Human alphaherpesvirus 1 [11] = experiment: Antiviral activity against Human herpesvirus 1 strain KOS infected in HEL cells assessed as inhibition of virus-induced cytopathic effect after 3 days by MTT assay; format: functional, organism-based; conditions: Human alphaherpesvirus 1, KOS, 72 h
[12] = Cytotoxicity against Homo sapiens (human) HeLa cells after 3 days by microscopic analysis; format: cell-based
Human alphaherpesvirus 2 = experiment: Antiviral activity against Human herpesvirus 2 strain G infected HEL cells assessed as inhibition of virus-induced cytopathic effect after 3 days by MTT assay; format: functional, organism-based; conditions: Human alphaherpesvirus 2, strain G, 72 h
Sindbis virus = experiment: Antiviral activity against Sindbis virus infected Vero cells assessed as inhibition of virus-induced cytopathic effect after 3 days by MTT assay; format: functional, organism-based; conditions: 72 h
Human respirovirus 3 = experiment: Antiviral activity against Human parainfluenza virus 3 infected Vero cells assessed as inhibition of virus-induced cytopathic effect after 3 days by MTT assay; format: functional, organism-based; conditions: Human respirovirus 3, Vero, 72 h
Human alphaherpesvirus 1 [13] = experiment: Antiviral activity against acyclovir-resistant TK-deficient Hepres simplex virus 1 KOS infected in HEL cells assessed as inhibition of virus-induced cytopathic effect after 3 days by MTT assay; format: functional, organism-based; conditions: Human alphaherpesvirus 1, KOS, 72 h
Vaccinia virus = experiment: Antiviral activity against Vaccinia virus infected in HEL cells assessed as inhibition of virus-induced cytopathic effect after 3 days by MTT assay; format: functional, organism-based; conditions: Orthopoxvirus vaccinia, 72 h
[14] = Selectivity ratio of MCC for human HEL cells to EC50 for Herpes simplex virus 1 KOS; format: ADME, cell-based
Coxsackievirus B4 [15] = experiment: Antiviral activity against Human coxsackievirus B4 infected HeLa cells assessed as inhibition of virus-induced cytopathic effect after 3 days by MTT assay; format: functional, organism-based; conditions: Enterovirus B, 72 h
[16] = Selectivity ratio of MCC for human HEL cells to EC50 for Herpes simplex virus 2 G; format: ADME, cell-based
[17] = Selectivity ratio of MCC for human HEL cells to EC50 for Vesicular stomatitis virus; format: ADME, cell-based
[18] = Selectivity ratio of MCC for human HEL cells to EC50 for acyclovir-resistant TK-deficient Hepres simplex virus 1 KOS; format: ADME, cell-based
[19] = Selectivity ratio of MCC for human HEL cells to EC50 for Vaccinia virus; format: ADME, cell-based
[20] = system: Vesicular stomatitis virus; experiment: Antiviral activity against Vesicular stomatitis virus infected HeLa cells assessed as inhibition of virus-induced cytopathic effect after 3 days by MTT assay; format: functional, organism-based; conditions: 72 h
Punta Toro virus = experiment: Antiviral activity against Punta Toro virus infected Vero cells assessed as inhibition of virus-induced cytopathic effect after 3 days by MTT assay; format: functional, organism-based; conditions: 72 h
[21] = system: Respiratory syncytial virus; experiment: Antiviral activity against Respiratory syncytial virus infected HeLa cells assessed as inhibition of virus-induced cytopathic effect after 3 days by MTT assay; format: functional, organism-based; conditions: human respiratory syncytial virus, 72 h

SMILES | Activity [1] | Activity (Human alphaherpesvirus 1 [2]) | MCC at 72 h [3] | Activity [4] | Activity (Hepatovirus A [5]) | Activity (Human alphaherpesvirus 1 [6]) | Activity (Hepatovirus A [7]) | EC50 [8] | EC50 (Reovirus sp.) | EC50 (Coxsackievirus B4 [9]) | MCC at 72 h [10] | EC50 (Human alphaherpesvirus 1 [11]) | MCC at 72 h [12] | EC50 (Human alphaherpesvirus 2) | EC50 (Sindbis virus) | EC50 (Human respirovirus 3) | EC50 (Human alphaherpesvirus 1 [13]) | EC50 (Vaccinia virus) | EC50 (Coxsackievirus B4 [15]) | EC50 [20] | other results
Clc1ccc(C2=NOC(c3ccc(OCc4ccccc4)cc3)C2)cc1 (stereo not given) | inactive | 38% | > 100 µg/mL | inactive | 10% | 60% | 58% | – | – | – | – | – | – | – | – | – | – | – | – | – | –
c1ccc(COc2ccc(C3CC(c4ccccc4)=NO3)cc2)cc1 (stereo not given) | inactive | 3% | > 100 µg/mL | inactive | 0% | 15% | 2% | – | – | – | – | – | – | – | – | – | – | – | – | – | –
NC(=O)c1ncn([C@@H]2O[C@H](CO)[C@@H](O)[C@H]2O)n1 [RIBAVIRIN] | – | – | > 250 µM | – | – | – | – | > 250 µM | > 250 µM | > 250 µM | > 250 µM | > 250 µM | > 250 µM | > 250 µM | > 250 µM | 45 µM | > 250 µM | – | – | – | –
Nc1ccn(C[C@@H](CO)OCP(=O)(O)O)c(=O)n1 [CIDOFOVIR] | – | – | – | – | – | – | – | > 250 µM | – | – | > 250 µM | 3 µM | – | 5 µM | – | – | – | – | – | – | –
Nc1nc2c(ncn2COC(CO)CO)c(=O)[nH]1 [GANCICLOVIR] | – | – | – | – | – | – | – | > 100 µM | – | – | > 100 µM | – | – | 0.08 µM | – | – | 6 µM | > 100 µM | – | – | –
Clc1ccc(C2=NN(c3ccccc3)C(c3ccc(OCc4ccccc4)cc3)C2)cc1 (stereo not given) | inactive | 19% | 100 µg/mL | inactive | 0% | 43% | 21% | > 20 µg/mL | > 20 µg/mL | > 20 µg/mL | 100 µg/mL | > 20 µg/mL | ≥ 20 µg/mL | > 20 µg/mL | > 20 µg/mL | > 20 µg/mL | > 20 µg/mL | > 20 µg/mL | > 20 µg/mL | > 20 µg/mL | selectivity ratio [14]: > 5; selectivity ratio [16]: > 5; selectivity ratio [17]: > 5; selectivity ratio [18]: > 5; selectivity ratio [19]: > 5; EC50 (Punta Toro virus): > 20 µg/mL; EC50 [21]: > 20 µg/mL
Brc1ccc(C2=NN(c3ccccc3)C(c3ccc(OCc4ccccc4)cc3)C2)cc1 (stereo not given) | inactive | 13.3% | ≥ 20 µg/mL | inactive | 2% | 50% | 16% | > 20 µg/mL | > 20 µg/mL | > 20 µg/mL | 100 µg/mL | > 20 µg/mL | 100 µg/mL | > 20 µg/mL | > 20 µg/mL | > 20 µg/mL | > 20 µg/mL | > 20 µg/mL | > 20 µg/mL | > 20 µg/mL | selectivity ratio [14]: > 5; selectivity ratio [16]: > 5; selectivity ratio [17]: > 5; selectivity ratio [18]: > 5; selectivity ratio [19]: > 5; EC50 (Punta Toro virus): > 20 µg/mL; EC50 [21]: > 20 µg/mL
O=c1[nH]c(=O)n([C@H]2C[C@H](O)[C@@H](CO)O2)cc1/C=C/Br [BRIVUDINE] | – | – | – | – | – | – | – | > 250 µM | – | – | > 250 µM | – | – | 126 µM | – | – | > 250 µM | – | – | – | –
Cc1ccc(C2=NN(c3ccccc3)C(c3ccc(OCc4ccccc4)cc3)C2)cc1 (stereo not given) | inactive | 31% | 100 µg/mL | inactive | 14% | 58% | 39% | > 20 µg/mL | > 20 µg/mL | > 20 µg/mL | 100 µg/mL | > 20 µg/mL | 100 µg/mL | > 20 µg/mL | > 20 µg/mL | > 20 µg/mL | > 20 µg/mL | > 20 µg/mL | > 20 µg/mL | > 20 µg/mL | selectivity ratio [14]: > 5; selectivity ratio [16]: > 5; selectivity ratio [17]: > 5; selectivity ratio [18]: > 5; selectivity ratio [19]: > 5; EC50 (Punta Toro virus): > 20 µg/mL; EC50 [21]: > 20 µg/mL
Cc1ccc(C2=NOC(c3ccc(OCc4ccccc4)cc3)C2)cc1 (stereo not given) | inactive | 45% | > 100 µg/mL | inactive | 27% | 79% | 46% | – | – | – | – | – | – | – | – | – | – | – | – | – | –
Brc1ccc(C2=NOC(c3ccc(OCc4ccccc4)cc3)C2)cc1 (stereo not given) | inactive | 26.1% | ≥ 20 µg/mL | inactive | 7.3% | 67% | 21% | – | – | – | – | – | – | – | – | – | – | – | – | – | –
c1ccc(COc2ccc(C3CC(c4ccccc4)=NN3c3ccccc3)cc2)cc1 (stereo not given) | inactive | 0% | 100 µg/mL | inactive | 7% | 30% | 23% | > 20 µg/mL | > 20 µg/mL | > 20 µg/mL | 100 µg/mL | > 20 µg/mL | 100 µg/mL | > 20 µg/mL | > 20 µg/mL | > 20 µg/mL | > 20 µg/mL | > 20 µg/mL | > 20 µg/mL | > 20 µg/mL | selectivity ratio [14]: > 5; selectivity ratio [16]: > 5; selectivity ratio [17]: > 5; selectivity ratio [18]: > 5; selectivity ratio [19]: > 5; EC50 (Punta Toro virus): > 20 µg/mL; EC50 [21]: > 20 µg/mL
Nc1ncnc2c1ncn2C[C@H](O)CO [(S)-DHPA] | – | – | > 250 µM | – | – | – | – | – | > 250 µM | > 250 µM | – | – | > 250 µM | – | > 250 µM | > 250 µM | – | – | > 250 µM | > 250 µM | EC50 (Punta Toro virus): > 250 µM; EC50 [21]: > 250 µM
